Measured values as given in patent US7470669B2, “Isolated polypeptide comprising a leptin fragment” (Serono Genetics Institute, S.A., priority 1999, dated 2008).

Tested on: LSR
Assay: Ligand blot of 125I-leptin on LSR complexes immunoprecipitated from PLC cells
Format: binding, human
Settings: PLC cell lysates; complexes of 200 and 230 kDa
Experimental: FIGS. 4A, 4B, 4C, and 4D show LSR binding and degradation of ^125I-leptin in human hepatocytes, and the effect of 81B anti-LSR antibody. For FIG. 4A, PLC cells were lysed (3-T175 cm^2 flasks per condition) and immunoprecipitated with irrelevant or 81B anti-serum. The immunoprecipitates were washed, were separated on 10% SDS-polyacrylamide gels under nondenaturing conditions, and were transferred to nitrocellulose. Ligand blots using ^125I-leptin were then performed as described in FIG. 2. For FIG. 4B, confluent monolayers of PLC cells were incubated at 37° C. for 30 min with 100 nM insulin, were washed, and then were incubated for 30 min at room temperature in the presence of anti-LSR peptide 81B antibody (▪), or irrelevant (□) IgG. After this, the cells were incubated at 37° C. for 2 h with increasing concentrations of ^125I-leptin in Buffer A. The monolayers were washed, and the amount of ^125I-leptin degraded was determined as described herein. Results are shown as the mean of duplicate (irrelevant IgG) or triplicate (anti-LSR peptide IgG) determinations. FIG. 4C is a schematic diagram of the motifs found from the predicted protein sequence of LSR α cDNA. […] After washing and incubation with goat-anti-rabbit FITC-conjugated antibody, the cells were fixed and analyzed by flow cytometry using a FACSCalibur (Becton Dickinson). […]

In the case of “leptin: plasma protein of 16 kDa produced by adipocytes; recombinant human or mouse leptin, species depends on the experiment”, the “binding of 125I-leptin to multimeric complexes precipitated by the 81B antibody” value is reported as “binds directly”.
